From patent US9902696B2, “1,4-substituted piperidine derivatives” (Cephalon, Inc., priority 2015, dated 2018)
Structures can show the parent of a compound that is named as a salt.

Target: T1, recombinant human baculovirus-expressed GST-tagged FASN (Homo sapiens, UniProt P49327)
T1 construct: GST
Experiment: FASN enzyme activity assay, fluorescence-based detection of CoA with CPM
Format: biochemical
Conditions: 5 nM FASN, 150 μM NADPH, 10 μM acetyl-CoA, 25 μM malonyl-CoA, 90 minutes incubation; read-out: IC50 data for Additional Compounds of Formulae I-V(a): Activity
Description: FASN Enzyme activity may be determined by detecting coenzyme A (CoA), a product of FASN-catalyzed synthesis of palmitate from acetyl-CoA and malonyl-CoA with NADPH as a cofactor. The assay is fluorescence-based and measures the interaction of free CoA with 7-diethylamino-3-(4′-malemimidylphenyl)-4-methylcoumarin (CPM; Life Technologies, CA) as described in Chung et al (2008). The coumarin derivative CPM contains a thiol-reactive maleimide that becomes fluorescent upon interaction with the sulfhydryl group of CoA.
For the example compounds described herein, the reaction was performed in 384-well low volume non-binding plates (Corning, N.Y.) using recombinant human baculovirus-expressed GST-tagged FASN. The 20-μL assay mixture contained 50 mM HEPES (pH 7.5), 5 nM FASN, 150 μM NADPH (Sigma, St. Louis, Mo.), 10 μM acetyl-CoA (Sigma), 25 μM malonyl-CoA (Sigma) and test compound [diluted in dimethyl sulfoxide (DMSO); 0.5% DMSO final in assay after 100 nL addition]. See, Chung et al.; “A fluorescence-based thiol quantification assay for ultra-high-throughput screening for inhibitors of coenzyme A production,” Assay Drug Dev Tech 2008; 6:361-374.
The reaction was initiated by adding malonyl-CoA, followed by incubation for 90 minutes at […]. A stock solution of the CPM reagent was prepared in DMSO at […] and stored at […]. To detect CoA produced in the FASN reaction, the CPM stock was diluted to […] in 70% ethanol and added at 4 μL/well to the assay plate. The reaction mixture was then incubated for 30 minutes. Fluorescence was measured using the EnVision™ 2102 multi-label plate reader (PerkinElmer, Waltham, Mass.) utilizing a general dual mirror, a 390 nm excitation filter and a 530 nm emission filter. Data analysis was performed using ActivityBase (IDBS, Guilford, UK). IC50 values were calculated by plotting the percent inhibition versus log 10 of the concentration of the compound, and fitting to the nonlinear regression sigmoidal dose-response (variable slope) equation in XLFit (IDBS).

T1 sequence (P49327 whole entry): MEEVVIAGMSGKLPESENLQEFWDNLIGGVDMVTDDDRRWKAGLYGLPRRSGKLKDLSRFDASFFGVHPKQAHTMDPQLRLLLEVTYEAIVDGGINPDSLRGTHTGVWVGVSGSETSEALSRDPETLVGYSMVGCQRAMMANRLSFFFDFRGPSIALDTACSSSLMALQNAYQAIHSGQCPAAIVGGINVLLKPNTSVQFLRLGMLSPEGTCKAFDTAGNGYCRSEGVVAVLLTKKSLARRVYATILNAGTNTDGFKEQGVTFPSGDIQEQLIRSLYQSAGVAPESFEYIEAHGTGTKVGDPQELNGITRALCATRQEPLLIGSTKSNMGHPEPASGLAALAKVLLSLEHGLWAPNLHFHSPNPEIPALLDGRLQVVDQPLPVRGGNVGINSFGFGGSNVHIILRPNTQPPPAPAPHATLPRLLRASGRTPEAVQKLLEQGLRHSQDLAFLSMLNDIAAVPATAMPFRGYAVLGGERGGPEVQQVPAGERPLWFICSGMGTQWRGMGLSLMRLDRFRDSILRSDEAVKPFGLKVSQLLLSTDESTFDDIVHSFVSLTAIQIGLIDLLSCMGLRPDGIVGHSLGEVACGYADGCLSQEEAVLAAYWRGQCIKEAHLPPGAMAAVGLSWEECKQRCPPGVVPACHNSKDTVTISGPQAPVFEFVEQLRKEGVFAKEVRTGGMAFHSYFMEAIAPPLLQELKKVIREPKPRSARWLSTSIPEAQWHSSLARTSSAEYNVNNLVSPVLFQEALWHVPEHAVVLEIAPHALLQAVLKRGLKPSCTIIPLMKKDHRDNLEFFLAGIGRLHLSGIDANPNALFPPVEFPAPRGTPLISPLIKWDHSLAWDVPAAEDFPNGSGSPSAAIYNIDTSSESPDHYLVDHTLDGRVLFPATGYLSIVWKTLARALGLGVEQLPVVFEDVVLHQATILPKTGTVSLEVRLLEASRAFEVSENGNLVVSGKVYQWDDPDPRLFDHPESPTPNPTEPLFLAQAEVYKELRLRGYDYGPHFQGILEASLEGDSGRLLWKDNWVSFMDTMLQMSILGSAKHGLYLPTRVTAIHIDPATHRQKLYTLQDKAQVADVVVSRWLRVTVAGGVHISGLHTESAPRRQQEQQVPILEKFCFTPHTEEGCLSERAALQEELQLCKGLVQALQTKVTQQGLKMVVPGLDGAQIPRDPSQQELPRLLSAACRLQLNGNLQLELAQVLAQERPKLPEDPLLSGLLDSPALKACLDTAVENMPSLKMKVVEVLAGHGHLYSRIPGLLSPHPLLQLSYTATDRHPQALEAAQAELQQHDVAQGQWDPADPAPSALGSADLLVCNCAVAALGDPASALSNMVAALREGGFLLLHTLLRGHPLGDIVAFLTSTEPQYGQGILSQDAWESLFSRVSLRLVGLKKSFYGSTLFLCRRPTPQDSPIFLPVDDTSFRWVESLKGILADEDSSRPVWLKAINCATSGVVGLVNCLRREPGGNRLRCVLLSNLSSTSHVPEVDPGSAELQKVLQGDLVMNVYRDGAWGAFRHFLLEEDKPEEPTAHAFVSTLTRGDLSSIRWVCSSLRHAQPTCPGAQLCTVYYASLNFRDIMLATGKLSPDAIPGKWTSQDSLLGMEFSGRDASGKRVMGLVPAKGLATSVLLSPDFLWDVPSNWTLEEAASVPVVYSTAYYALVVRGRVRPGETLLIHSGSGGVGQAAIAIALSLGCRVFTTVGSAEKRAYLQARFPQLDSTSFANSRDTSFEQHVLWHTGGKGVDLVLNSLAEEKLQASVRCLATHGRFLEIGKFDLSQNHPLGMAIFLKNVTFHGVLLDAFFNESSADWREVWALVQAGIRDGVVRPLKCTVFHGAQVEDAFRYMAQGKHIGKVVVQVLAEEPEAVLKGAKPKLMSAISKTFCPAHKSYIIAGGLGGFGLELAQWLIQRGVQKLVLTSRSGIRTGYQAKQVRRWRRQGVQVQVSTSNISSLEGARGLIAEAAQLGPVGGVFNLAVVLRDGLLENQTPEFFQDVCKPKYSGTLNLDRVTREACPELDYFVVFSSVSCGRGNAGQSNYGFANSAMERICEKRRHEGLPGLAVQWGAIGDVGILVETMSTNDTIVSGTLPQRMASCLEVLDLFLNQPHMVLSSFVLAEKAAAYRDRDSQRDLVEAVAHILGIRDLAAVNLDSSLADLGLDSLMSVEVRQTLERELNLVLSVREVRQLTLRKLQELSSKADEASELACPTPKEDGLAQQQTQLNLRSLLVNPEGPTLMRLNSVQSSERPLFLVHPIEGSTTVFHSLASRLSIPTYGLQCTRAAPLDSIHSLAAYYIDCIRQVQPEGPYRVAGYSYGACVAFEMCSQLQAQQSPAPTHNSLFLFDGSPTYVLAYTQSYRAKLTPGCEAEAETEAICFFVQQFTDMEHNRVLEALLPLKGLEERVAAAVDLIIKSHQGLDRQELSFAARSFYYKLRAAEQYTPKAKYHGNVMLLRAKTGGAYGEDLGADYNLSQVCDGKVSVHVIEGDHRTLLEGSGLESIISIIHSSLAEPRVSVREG

Row | IC50 [nM] | SMILES
1 | 1 to 99 | CCCNC(=O)N1CCC(Oc2ccc(-c3ccn4ccnc4c3C)cc2)CC1 [Example 631, 4-[4-(8-Methylimidazo[1,2-a]pyridin-7-yl)phenoxy]-N-propyl-piperidine-1-carboxamide, HCl]

Same assay, conditions: 5 nM FASN, 150 μM NADPH, 10 μM acetyl-CoA, 25 μM malonyl-CoA, 90 minutes incubation; read-out: IC50 data for Compounds of Formulae I-V/V(a): Activity

Row | IC50 [nM] | SMILES
2 | 100 to 999 | CCC(=O)N1CCC(Oc2ccc(-c3ccc4c(C)nccc4c3C)cc2)CC1 [Example 472, 1-[4-[4-(1,5-Dimethyl-6-isoquinolyl)phenoxy]-1-piperidyl]propan-1-one HCl]
3 | 1000 to 10000 | O=C(C1CCC1)N1CCC(Oc2ccc(-c3cc(O)c4ccnn4c3)cc2)CC1 [Example 427, Cyclobutyl-{4-[4-(4-hydroxy-pyrazolo[1,5-a]pyridin-6-yl)-phenoxy]-piperidin-1-yl}-methanone]
4 | 1 to 99 | O=C(N1CCC(Oc2ccc(-c3ccc4cncn4c3)cc2)CC1)C1(O)CC1 [Example 302, (1-Hydroxycyclopropyl)-[4-(4-imidazo[1,5-a]pyridin-6-yl-phenoxy)-piperidin-1-yl]-methanone]
5 | 100 to 999 | CCC(=O)N1CCC(Oc2ccc(-c3ccc4nccn4c3)cc2)CC1 [Example 256, 1-[4-(4-Imidazo[1,2-a]pyridin-6-yl-phenoxy)-piperidin-1-yl]-propan-1-one, TFA salt]
6 | 100 to 999 | CC(C)C(=O)N1CCC(Oc2ccc(-c3cnc4ccccc4c3)c(Cl)c2)CC1 [Example 204, 1-[4-(3-Chloro-4-quinolin-3-yl-phenoxy)-piperidin-1-yl]-2-methyl-propan-1-one]
7 | 100 to 999 | Cc1c(-c2ccc(O[C@H]3C[C@H]4CC[C@@H](C3)N4C(=O)C3CC3)cc2)ccc2cccnc12 [Example 370, Cyclopropyl-{endo-3-[4-(8-methylquinolin-7-yl)-phenoxy]-8-aza-bicyclo-[3.2.1]oct-8-yl}-methanone, HCl]
8 | 1000 to 10000 | CCC(=O)N1CCC(Oc2ccc(-c3cncc(Nc4ccccc4)c3)cc2)CC1 [Example 401, 1-{4-[4-(5-Phenylaminopyridin-3-yl)-phenoxy]-piperidin-1-yl}-propan-1-one, TFA salt]
9 | 1 to 99 | O=C(C1CC1)N1CCC(Oc2ccc(-c3cnc4ccccc4c3Cl)cc2)CC1 [Example 48, {4-[4-(4-Chloroquinolin-3-yl)-phenoxy]-piperidin-1-yl}-cyclopropyl-methanone]
10 | 100 to 999 | CCC(=O)N1CCC(Oc2ccc(-c3cnc4cccc(C)c4c3)cc2)CC1 [Example 460, 1-{4-[4-(5-Methylquinolin-3-yl)-phenoxy]-piperidin-1-yl}-propan-1-one, HCl]
11 | 1 to 99 | O=C(C1CCC1)N1CCC(Oc2ccc(-c3cc4ccccc4cn3)cc2)CC1 [Example 45, Cyclobutyl-[4-(4-isoquinolin-3-yl-phenoxy)-piperidin-1-yl]-methanone]
12 | 100 to 999 | Cn1ncc2ccc(-c3ccc(OC4CCN(C(=O)C5CC5)CC4)cc3)cc21 [Example 270, Cyclopropyl-{4-[4-(1-methyl-1H-indazol-6-yl)-phenoxy]-piperidin-1-yl}-methanone. TFA salt]
13 | 100 to 999 | CCC(=O)N1CCC(Oc2ccc(-c3ccc4occc4c3)cc2)CC1 [Example 8, 1-[4-(4-Benzofuran-5-yl-phenoxy)-piperidin-1-yl]-propan-1-one]
14 | 100 to 999 | Cc1c(-c2ccc(OC3CCN(C(N)=O)CC3)cc2)ccc2cccnc12 [Example 97, 4-[4-(8-methyl-7-quinolyl)phenoxy]piperidine-1-carboxamide]
15 | 100 to 999 | O=C(C1CC1)N1CCC(Oc2ccc(-c3cnc4[nH]ccc4c3)cc2)CC1 [Example 33, Cyclopropyl-{4-[4-(1H-pyrrolo[2,3-b]pyridin-5-yl)-phenoxy]-piperidin-1-yl}-methanone]
16 | 1000 to 10000 | O=C(C1CC1)N1CCC(Oc2ccc(-c3ccn4cnnc4c3)cc2)CC1 [Example 308, Cyclopropyl-[4-(4-[1,2,4]triazolo[4,3-a]pyridin-7-yl-phenoxy)-piperidin-1-yl]-methanone]
17 | 1000 to 10000 | CCC(=O)N1CCC(Oc2ccc(-c3cnc4cc(OC)c(C)cc4c3)cc2)CC1 [Example 441, 1-{4-[4-(7-Methoxy-6-methylquinolin-3-yl)-phenoxy]-piperidin-1-yl}-propan-1-one]
